As usually defined, the melting point is the temperature of the solid-liquid transition.

With `Cc1ccc2c(c1)C(C(F)(F)F)(C(F)(F)F)OI2Br` [Compound 5a, 1-Bromo-1,3-dihydro-5-methyl-3,3-bis(trifluoromethyl)-1,2-benziodoxole], the melting point fell in the range of 189 to 190 °C.

The values above are taken from patent US9290421B2, “Hypervalent radioactive astatine or iodine compounds, and preparation methods thereof” (Institut National de la Santé de la Recherche Medicalé, priority 2010, dated 2016).
